Assay [1] concerns the target T1, α4β2 subtype of nicotinic acetylcholine receptors (Rattus norvegicus, UniProt P09483+P12390).
T1 construct: examined using rat brain membrane obtained from whole homogenized brain; from tissue; host or cells: whole brain membranes of Fischer-344 male rats
The assay is described as follows: Binding assay at α4β2 subtype of nicotinic acetylcholine receptors ([3H]-cytisine, rat brain membrane). From the text: The methods for evaluating the binding capabilities of the compounds against nicotinic acetylcholine receptors are different by subtypes of receptors. The binding capabilities of the compounds at α4β2 nicotinic acetylcholine receptors are examined using rat brain membrane obtained from whole homogenized brain, and determining the inhibiting rate of the compounds against [^3H]-cytisine binding to said brain membrane. Furthermore, the binding capabilities of the compounds at α1β1γδ nicotinic acetylcholine receptors are examined using homogenized rat muscle, and determining the inhibiting rate of the compounds against [^3H]-α-bungarotoxin binding to said muscle membrane.
Binding Assays at α4β2 Subtype of Nicotinic Acetylcholine Receptors
The affinity of the compounds of the present invention to α4β2 subunit of nicotinic acetylcholine receptors was performed by the following method, which was modified method described by Pabreza L. A., Dhawan S. & Kellar K. J., Mol. Pharm., 39, 9-12 (1990), and by Anderson D. J. & Arneric S. P., Eur. J. Pharm., 253, 261-267 (1994).
(1) Preparation of Rat Brain Membrane Containing α4β2 subtype of Nicotinic Acetylcholine Receptors
Fischer-344 strain male rats (body weight: 200-240 g; 9 weeks old) obtained from Charles River Japan were used. Rats were housed in the breeding cage controlled of the room temperature at 23±1° C., and the humidity of 55±5% for 1 to 4 weeks. Rats (3 to 4 rats per a cage) were housed with lights on for 12 hours daily (from 7:00 to 19:00), and allowed free access to food and water.
Preparation of rat brain membrane containing α4β2 subtype of nicotinic acetylcholine receptors was performed as follow. That is, rat brains were isolated just after sacrificed by decapitation, washed with ice-cooled saline solution and then frozen at −80° C. with liquid nitrogen and stored till using. After thawing the frozen brain, the brain was homogenized in 10 volumes of buffer solution (50 mM of Tris-HCl, 120 mM of NaCl, 5 mM of KCl, 1 mM of MgCl2, 2mM of CaCl2; pH 7.4; 4° C.) using homogenizer (HG30, Hitachi Kohki Ltd.) for 30 seconds, and the homogenate were centrifuged under 1,000×G for 10 minutes at 4° C. The resulting supernatant was separated and the pellet was homogenized again with half volume of aforementioned prior buffer solution and centrifuged under the same conditions. Combined supernatant was further centrifuged under 40,000×G for 20 minutes at 4° C. The pellet was suspended in buffer solution and used for binding assays at receptors.
(2) Experiments of α4β2 Subtype of Nicotinic Acetylcholine Receptors Binding
Suspensions of membrane pellets containing 400-600 μg of protein were added to test tubes containing test compounds and [^3H]-cytisine (2 nM) in a final volume of 200 μl and incubated for 75 minutes in ice-cooled bath. The samples were isolated by vacuum filtration onto Whatman GF/B filters, which were prerinsed with 0.5% polyethylenimine just prior to sample filtration, using Brandel multi manifold cell harvester. The filters were rapidly washed with buffer solution (3×1 ml). The filters were counted in 3 ml of clearsol I (Nacalai Tesque Inc.).
The analyses of the experimental results were conducted by using the Accufit Competition Program (Beckman Ltd.).

The target of assay [2] is T2, α1β1γδ subtype of nicotinic acetylcholine receptors (Rattus norvegicus, UniProt P25108).
T2 construct: The centrifugation at 100,000×G for 60 minutes at 4° C. yielded the rat muscle extract as supernatant
The assay is described as follows: biochemical. It counts as binding. As to conditions: % of control binding remaining.

T1 sequence (P09483 31-630): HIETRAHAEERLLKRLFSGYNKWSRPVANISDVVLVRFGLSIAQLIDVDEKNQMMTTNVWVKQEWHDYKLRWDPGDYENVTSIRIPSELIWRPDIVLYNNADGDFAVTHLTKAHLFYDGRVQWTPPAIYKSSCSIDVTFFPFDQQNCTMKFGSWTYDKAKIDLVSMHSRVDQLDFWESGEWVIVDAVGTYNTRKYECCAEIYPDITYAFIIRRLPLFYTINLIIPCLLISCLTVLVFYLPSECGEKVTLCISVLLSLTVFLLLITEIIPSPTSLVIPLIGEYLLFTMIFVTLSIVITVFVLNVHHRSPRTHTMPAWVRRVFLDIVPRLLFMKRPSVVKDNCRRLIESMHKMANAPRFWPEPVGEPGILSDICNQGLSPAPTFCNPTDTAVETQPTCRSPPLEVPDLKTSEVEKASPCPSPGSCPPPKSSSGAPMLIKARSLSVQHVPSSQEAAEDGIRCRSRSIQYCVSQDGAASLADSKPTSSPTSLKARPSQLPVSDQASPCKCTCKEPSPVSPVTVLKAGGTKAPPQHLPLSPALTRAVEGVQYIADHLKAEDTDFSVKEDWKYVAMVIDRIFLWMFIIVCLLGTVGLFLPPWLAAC
T1 sequence (P12390 25-500): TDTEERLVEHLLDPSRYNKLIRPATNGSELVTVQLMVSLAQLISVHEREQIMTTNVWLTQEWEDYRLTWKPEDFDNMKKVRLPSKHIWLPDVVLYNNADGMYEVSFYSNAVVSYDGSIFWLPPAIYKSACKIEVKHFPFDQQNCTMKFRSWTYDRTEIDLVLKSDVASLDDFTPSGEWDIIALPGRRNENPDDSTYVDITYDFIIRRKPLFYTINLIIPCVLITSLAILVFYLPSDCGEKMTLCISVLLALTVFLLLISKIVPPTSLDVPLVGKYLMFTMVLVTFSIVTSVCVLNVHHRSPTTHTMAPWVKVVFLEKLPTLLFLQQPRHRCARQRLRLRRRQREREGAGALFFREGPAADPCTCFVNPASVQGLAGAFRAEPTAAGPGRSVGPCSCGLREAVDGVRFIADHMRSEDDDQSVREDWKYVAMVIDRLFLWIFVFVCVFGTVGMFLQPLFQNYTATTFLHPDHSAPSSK
T2 sequence (P25108 21-457): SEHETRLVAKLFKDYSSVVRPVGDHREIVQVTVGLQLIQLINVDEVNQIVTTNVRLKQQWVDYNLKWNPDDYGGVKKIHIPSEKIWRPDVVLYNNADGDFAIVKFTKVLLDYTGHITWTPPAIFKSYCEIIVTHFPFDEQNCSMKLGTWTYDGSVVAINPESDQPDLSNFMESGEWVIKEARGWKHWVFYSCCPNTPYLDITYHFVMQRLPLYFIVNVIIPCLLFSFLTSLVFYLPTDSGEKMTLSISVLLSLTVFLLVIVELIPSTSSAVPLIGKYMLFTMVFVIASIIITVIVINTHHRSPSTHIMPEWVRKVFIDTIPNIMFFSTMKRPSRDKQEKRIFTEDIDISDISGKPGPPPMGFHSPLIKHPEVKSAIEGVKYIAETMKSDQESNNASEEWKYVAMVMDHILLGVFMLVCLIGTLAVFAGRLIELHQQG
T2 sequence (P25109 24-501, further chain): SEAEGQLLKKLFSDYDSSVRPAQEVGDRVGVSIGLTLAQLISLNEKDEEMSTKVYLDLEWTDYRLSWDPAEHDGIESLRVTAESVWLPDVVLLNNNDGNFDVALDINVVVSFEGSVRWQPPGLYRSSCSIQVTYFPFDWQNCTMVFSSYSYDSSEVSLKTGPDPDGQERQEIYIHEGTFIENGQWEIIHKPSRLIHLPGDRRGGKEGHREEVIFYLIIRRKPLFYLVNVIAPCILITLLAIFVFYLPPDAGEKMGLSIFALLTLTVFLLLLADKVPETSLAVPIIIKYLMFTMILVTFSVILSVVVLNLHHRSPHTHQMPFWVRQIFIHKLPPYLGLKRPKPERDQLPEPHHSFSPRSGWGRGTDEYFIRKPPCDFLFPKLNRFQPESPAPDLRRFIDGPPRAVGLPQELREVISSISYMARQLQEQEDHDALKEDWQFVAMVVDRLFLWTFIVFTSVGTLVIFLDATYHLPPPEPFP
T2 sequence (P25110 22-517, further chain): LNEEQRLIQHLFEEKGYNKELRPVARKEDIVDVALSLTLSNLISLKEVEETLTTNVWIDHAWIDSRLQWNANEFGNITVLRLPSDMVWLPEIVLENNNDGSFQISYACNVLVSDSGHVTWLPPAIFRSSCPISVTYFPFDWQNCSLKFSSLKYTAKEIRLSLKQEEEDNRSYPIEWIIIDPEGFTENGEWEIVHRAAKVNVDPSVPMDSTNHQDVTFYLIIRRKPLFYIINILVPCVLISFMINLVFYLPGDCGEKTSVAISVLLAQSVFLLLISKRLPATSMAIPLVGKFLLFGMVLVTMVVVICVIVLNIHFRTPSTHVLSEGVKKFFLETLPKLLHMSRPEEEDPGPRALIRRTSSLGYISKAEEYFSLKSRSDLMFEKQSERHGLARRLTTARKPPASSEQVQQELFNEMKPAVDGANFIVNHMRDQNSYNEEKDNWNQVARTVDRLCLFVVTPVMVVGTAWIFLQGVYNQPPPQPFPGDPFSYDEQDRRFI

The compound `Clc1ccc(C/N=C2\SCCN2Cc2ccc(Cl)nc2)cn1` [Compound 1, 3-(6-chloro-3-pyridyl)methyl-2-[(6-chloro-3-pyridyl)methyl]iminothiazolidine] returned a Ki in assay [1] of 16 nM. In the case of `Clc1ccc(C/N=C2\OCCCN2Cc2ccc(Cl)nc2)cn1` [Compound 2, 3-(6-chloro-3-pyridyl)methyl-2-[(6-chloro-3-pyridyl)-methyl]imino-3,4,5,6-tetrahydro-2H-1,3-oxazine], the “control % of [3H]-α-Bgt binding at 100 μM of test compound” value in assay [2] (100 μM test compound) came to 95%. Besides, the “control % of [3H]-α-Bgt binding at 1,000 μM of test compound” value in assay [2] (1,000 μM test compound) amounted to 56%. Besides, the Ki in assay [1] worked out at 22 nM. In turn, `Clc1ccc(C/N=c2\sccn2Cc2ccc(Cl)nc2)cn1` [Compound 8, 3-(6-chloro-3-pyridyl)methyl-2-[(6-chloro-3-pyridyl)methyl]imino-2,3-dihydrothiazole] returned a Ki in assay [1] of 42 nM.

As for `Cn1ccn(Cc2ccc(Cl)nc2)c1=N` [Compound 13, 1-(6-chloro-3-pyridyl)methyl-2-imino-3-methyl-2,3-dihydroimidazole], in assay [1], the affinity corresponds to a Ki of 15 nM.

The values above are taken from patent publication US6900202B2, “Di-substituted imineheterocyclic compounds” (priority 2000, dated 2005).
